Data from patent US20260138981A1, “DIHYDROFOLATE REDUCTASE INHIBITORS FOR ANTI-BIOTIC RESISTANT INFECTIONS” (THE TRUSTEES OF PRINCETON UNIVERSITY, priority 2022, published 2026).

Key:
Assay type in all cases: cell-based
[1] = system: P. aeruginosa PA14; assay: Drug accumulation assay (intrabacterial drug metabolism, LC/MS); details: PA14, 5 μM, compared with TMP
Protocol: FIG. 1G provides intrabacterial drug metabolism (IBDM) of PA14 treated with 5 μM fluorofolin or trimethoprim. Samples were taken at time t=0, 30, 60, and 90 minutes. Data represent mean±SD of triplicate technical replicates.
FIG. 1H provides cumulative accumulation of drugs over 90 mins by AUC of IBDM curves. Data represent mean±SD of triplicate technical replicates. (P value≤0.0001) t-test using Prism 9.
Overnight PA14 cultures were back-diluted to early-mid exponential phase (OD600=0.4-0.6). The assay was initiated with treatment of the culture with either 5.0 μM fluorofolin or 5.0 μM trimethoprim. A DMSO treated culture was utilized as a control. […] The resulting cell lysate samples were analyzed utilizing verapamil as an internal standard. […]
Compound accumulation was realized using the selective ion monitoring (SIM) mode to quantify peak integration for a compound and the internal standard using their respective m/z values. Compound peaks were confirmed using a scanning mode that detected the compound peak using an m/z range of 100-1000. Peak area integration values were determined and a ratio of the peak area for the compound to the peak area for the verapamil internal standard was calculated and compound concentration was then determined from the compound calibration curve. […]

[2] = system: E. coli NCM-3722; assay: MIC in LB Broth; details: Escherichia coli, NCM3722, 16 hours at 37° C. in LB Broth, OD600
Protocol: (§1) The minimum inhibitory concentration is defined as the lowest concentration of antibiotic at which no visible growth was detected after 16 hours at 37° C. Overnight cultures were diluted 1:150 in LB Broth and added to a 96-well plate. Antibiotics were serially diluted 1:2 and added to columns of the 96-well plate and grown at 37° C. with continuous shaking. Cell growth was measured by optical density (OD600). MIC assays were performed in either BioTek Synergy HT (Winooski, VT) or Tecan InfiniteM200 Pro (Männedorf, CH) microplate readers.

[3] = system: E. coli lptD4213; assay: MIC in LB Broth; details: Escherichia coli, LPTD4213, 16 h
Protocol: as §1

[4] = system: S. epidermidis EGM-206; assay: MIC in LB Broth; details: Staphylococcus epidermidis, EGM206, 16 hours at 37° C. in LB Broth, OD600
Protocol: as §1

[5] = system: P. aeruginosa ATTC 27853; assay: MIC in LB Broth; details: Pseudomonas aeruginosa, ATTC27853, 16 hours at 37° C. in LB Broth, OD600
Protocol: as §1

[6] = system: E. coli MG1655; assay: MIC in LB Broth; details: Escherichia coli, 16 hours at 37° C. in LB Broth, OD600
Protocol: as §1

[7] = system: P. aeruginosa PA01; assay: MIC in LB Broth; details: Pseudomonas aeruginosa, 16 hours at 37° C. in LB Broth, OD600
Protocol: as §1

[8] = system: S. aureus USA300; assay: MIC in LB Broth; details: Staphylococcus aureus, 16 hours at 37° C. in LB Broth, OD600
Protocol: as §1

[9] = system: K. pneumoniae ATCC 438165; assay: MIC in LB Broth; details: Klebsiella pneumoniae, ATCC438165, 16 hours at 37° C. in LB Broth, OD600
Protocol: as §1

[10] = system: E. cloacae ATCC BAA-1143; assay: MIC in LB Broth; details: Enterobacter cloacae, ATCCBAA1143, 16 hours at 37° C. in LB Broth, OD600
Protocol: as §1

[11] = system: P. aeruginosa PA14; assay: MIC in LB Broth; details: Pseudomonas aeruginosa
Protocol: as §1

[12] = system: A. baumannii BAA-125; assay: MIC in LB Broth; details: Acinetobacter baumannii, BAA125, 16 hours at 37° C. in LB Broth, OD600
Protocol: as §1

[13] = system: CDC & FDA Antibiotic Resistant P. aeruginosa Isolate Bank; assay: CDC clinical isolate panel growth inhibition; details: 50 μg/mL
Protocol: Strains with growth inhibition>80% were considered sensitive to fluorofolin treatment.
Clinical isolates^45 were inoculated into LB Broth a 96-well flat bottom plate and grown overnight to stationary phase at 37° C. […] Percent growth was calculated by dividing OD600 of fluorofolin antibiotic treated wells to vehicle only wells.

[14] = system: S. epidermidis, E. cloacae, E. faecalis, K. pneumoniae, and S. aureus; assay: Growth of other species with TMI supplementation; details: fluorofolin 2×MIC, 0.3 mM TMI
Protocol: Where listed, growth media were prepared according manufacturer recommendations: LB Broth and LB Broth supplemented with 0.3 mM thymine (BD Biosciences 244610, Alfa Aesar A15879), 0.3 mM methionine (Sigma-Aldrich M9625), 0.3 mM inosine (EMD Millipore 4060), Mueller Hinton II Broth (Cation-Adjusted)/(CAMHB) (BD 212322) or 0.3 mM thymidine (Sigma-Aldrich T1895), Gutnick Minimal Media (1.0 g/L K2SO4, 13.5 g/L K2HPO4, 4.7 g/L KH2PO4, 0.1 g/L of MgSO4-7H2O, 10 mM NH4Cl as a nitrogen source, and 0.4% w/v glucose as a carbon source)^62.

## Nc1nc(N)c2c(ccc3c2ccn3Cc2ccnc(F)c2)n1 [fluorofolin]
[1]; 0-90 min
  rate of accumulation in P. aeruginosa: more rapidly
[1]; over 90 mins
  cumulative accumulation (AUC of IBDM curves): higher levels
[2]
  MIC: 0.312 µg/mL
[3]
  MIC: 0.02 µg/mL
[4]
  MIC: 0.312 µg/mL
[5]
  MIC: 25 µg/mL
[6]
  MIC: 0.625 µg/mL
[7]
  MIC: 6.25 µg/mL
[8]
  MIC: 0.4 µg/mL
[9]
  MIC: 6.25 µg/mL
[10]
  MIC: 12.5 µg/mL
[11]; P. aeruginosa PA14, compound alone
  MIC: 3.1 µg/mL
[11]; P. aeruginosa PA14, 16 hours at 37° C. in LB Broth, OD600
  MIC: 3.12 µg/mL
[12]
  MIC: 31.2 µg/mL
[13]
  sensitivity of isolates expressing KPC-5 and NDM-1 carbapenemase genes: remained sensitive
  sensitivity of strains 7, 18 and 23 of the CDC panel (dfrB2): fluorofolin-sensitive
[13]; OD600 vs vehicle control
  clinical isolates resistant: 14.5%
[14]
  rescue of growth inhibition by TMI supplementation: could also be rescued from fluorofolin growth inhibition
